Data from patent US8785483B2, “Methods for treating COPD” (The Board of Regents of the University of Texas System, priority 2010, dated 2014).

Legend:
STAT-6 = experiment: Western blot of STAT-6 phosphorylation in airway epithelial monolayer; type: cell-based, human; conditions: ALI monolayer, AR inhibitor 24 h prior to IL-13
Experimental: FIG. 7. AR inhibition prevents IL-13-induced phosphorylation of JAK-1, ERK1/2 and STAT-6 in airway epithelial monolayer. The ciliated monolayer of airway cells at ALI was treated with AR inhibitor for 24 h and stimulated with IL-13 for different time periods as indicated. At the end of incubation, cells were lysed and cell lysate was subjected to western blotting using antibodies against phosphorylated and nonphosphorylated JAK-1, ERK1/2 and STAT-6 to analyze the activation of these signaling proteins. A representative blot is shown (n=4). #p<0.001 vs Control; *p<0.01 and **p<0.001 vs IL-13. For air-liquid interface (ALI) culture, SAEC were seeded at 8.5×10^4 cells/12-mm-diameter PET transparent insert with […] pores (12-well millicell culture insert; Millipore) and pre-coated with rat tail collagen type-1 (Sigma-Aldrich). The cells were grown submerged in the differentiation medium as described earlier by Zhen et al. (Am J Respir Cell Mol Biol 36: 244-253, 2007). […] Protein levels were determined using Bradford reagent (Biorad, Hercules, Calif.). […] The blots were then washed, exposed to HRP-conjugated secondary antibodies (1:5,000 dilution) for 1 h, and the antigen-antibody complex was detected by enhanced chemiluminescence (Amersham Pharmacia Biotech, Piscataway, N.J., USA). […]

IL-13 = experiment: RWE-induced expression of IL-13 in mouse lung (quantitative RT-PCR); type: in vivo; conditions: RWE-sensitized and challenged mice, fidarestat 7 mg/kg body wt/day in drinking water, lungs 16 h after challenge
Experimental: FIG. 8. AR inhibition prevents RWE-induced expression of IL-13 in mouse lung. The mice were sensitized and challenged with PBS or RWE, without or with AR inhibitor and 16 h later lungs were harvested and total RNA was isolated (n=4). One microgram of total RNA from each sample was transcribed into first-strand cDNA and quantitative RT-PCR was conducted using IL-13 specific forward and reverse primers. The levels of RNA for the target sequences were determined by melting curve analysis. The values presented here are fold-change over the control. (**p<0.001). RWE, ragweed pollen extract; ARI, aldose reductase inhibitor. […]
The mice lungs were harvested 16 h after RWE-challenge and total RNA was isolated. From each sample, one microgram of total RNA was transcribed into first-strand cDNA and quantitative RT-PCR was conducted using IL-13 specific forward and reverse primers 5′[…] […] Data were collected and analyzed by ABI 7000 System equipment and software (Applied Biosystems, Foster City, Calif.). […] Values of expression in fold increase (ratio of control) were calculated using the formula for relative expression by the method of Delta Delta CT (ΔΔCT): F=2^−^ΔΔ^C, F=fold change (ratio of control), −ΔΔCT=(CT Target−CTHKG)^Timex−(CT Target-CT HKG)^Time 0. […]

NC(=O)[C@@H]1C[C@]2(NC(=O)NC2=O)c2cc(F)ccc2O1 [fidarestat, (2S,4S)-2-aminoformyl-6-fluoro-spiro[chroman-4,4′-imidazolidine]-2′,5′-dione]
IL-13-induced phosphorylation of STAT-6 (STAT-6): decreased significantly | RWE-induced increase of IL-13 expression in lung (IL-13): prevented this increase
